Data reported in paper PMC5720837, “Identification of a 4-fluorobenzyl L-valinate amide benzoxaborole (AN11736) as a potential development candidate for the treatment of Animal African Trypanosomiasis (AAT)” (Bioorganic & Medicinal Chemistry Letters, 2018).
Several values for one entry are separate records, joined by “and”; a condition that tells them apart may be missing. Identical values can stand only once.

Experiments:
[1] = test system: Trypanosoma congolense (T. congolense IL-3000 strain), bloodstream form; experiment: Whole cell Alamar Blue assay, T. congolense (72 h in vitro); format: cell-based; conditions: T. congolense IL-3000, 72 h in vitro Alamar Blue assay
Summary of the method: (§1)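 T. congolense IL-3000 bloodstream forms were grown axenically in HMI-9 (IMDM) with 20% bovine serum at a starting density of 2 × 10^5 for a 72 h assay. T. vivax STIB719 was taken from infected mouse blood and tested ex vivo for 48 h at 4 × 10^5. Alamar Blue fluorescence (ex 536/em 588 nm) gave IC50s from 11-point curves, at least three independent runs.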

[2] = test system: Trypanosoma vivax (T. vivax STIB719/ILRAD 560 strain), bloodstream form; experiment: Whole cell Alamar Blue assay, T. vivax (48 h ex vivo); format: cell-based; conditions: Trypanosoma vivax; T. vivax STIB719/ILRAD 560, 48 h ex vivo Alamar Blue assay
Summary of the method: as §1

[3] = In vitro metabolic stability, mouse S9; format: in vitro ADME; conditions: S9 fraction
Summary of the method: (§2)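 Stability measured in mouse and bovine S9 fractions.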

[4] = In vitro metabolic stability, bovine S9; format: in vitro ADME; conditions: S9 fraction
Summary of the method: as §2

[5] = test system: T. c. parasites (STIB736/IL1180 strain); experiment: In vivo mouse model of T. congolense infection; design: species or system NMRI female mice; conditions: for Efficacy in mouse model T. c., n/m (mice survived / total mice in group): intraperitoneal, monitored 60 days post treatment
Summary of the method: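 Female NMRI mice infected i.p. with 1 × 10^5 T. congolense STIB736/IL1180 or 1 × 10^4 T. vivax STIB719/ILRAD560. Treatment began after 7 (T. c.) or 3 (T. v.) days, i.p. in 10% DMSO/water for 1, 2 or 4 consecutive days, four mice per group. Tail-blood parasitemia checked twice weekly; mice aparasitemic at 60 days counted as cured.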

[6] = test system: T. v. parasites (STIB719/ILRAD560 strain); experiment: In vivo mouse model of T. vivax infection; design: species or system NMRI female mice; conditions: for Efficacy in mouse model T. v., n/m (mice survived / total mice in group): intraperitoneal, monitored 60 days post treatment
Procedure: (§3) Selected compounds were screened in both mouse and bovine in vitro metabolic stability assays (mouse S9 and bovine S9), as summarized in Table 2. These two species were chosen because the primary in vivo assays were conducted in mice, and the target animal of this research program is cattle. […] We evaluated the efficacy of selected compounds in two in vivo mouse models of infection, against T. congolense and T. vivax, respectively. Mice were infected with either 1 × 10^5 T. c. parasites or 1 × 10^4 T. v. parasites, and then treated with a test compound via intraperitoneal administration for 1, 2 or 4 consecutive days. The mice were then monitored for the presence of parasitemia for up to 60 days post treatment.[7] We tested in T. c. model first, then followed up with T. v. for interesting compounds. […] We selected compound 5 (AN11736) to progress to exploratory studies to determine the efficacy and safety in a preliminary formulation against induced infections of T. vivax and T. congolense in cattle.[8]
[7] Methods for testing compound efficacy in mouse models: In vivo mouse efficacy studies were performed at the Swiss TPH, using established mouse models of infection for T. c. and T. v. NMRI female mice were independently infected either with 1 × 10^5T. c. parasites/mouse (STIB736/IL1180 strain) or 1 × 10^4T. v. parasites/mouse (STIB719/ILRAD560 strain) using an intraperitoneal route. Parasitemia was allowed to develop over 7 days (T. c.) or 3 days (T. v.), respectively, before treatment was administered. Compounds were administered via intraperitoneal injection in 10% DMSO/water. Four mice were used per treatment group. Mice were monitored for the presence of trypanosomes, via tail blood examination microscopically with twice-per-week parasitemia checks for 60 days post treatment. Parasitemia was graded on a scale of 0–3, with 0 indicating no trypanosomes seen in 20 fields of view, 1 indicating the presence of 1–5 trypanosomes per field, 2 indicating the presence of 6–20 trypanosomes per field and 3 indicating greater than 20 trypanosomes per field. Mice scoring 2 or 3 were immediately euthanized. After 60 days, aparasitemic mice were considered cured. Untreated control mice survive on average for 10 and 6 days post infection for T. c. and T. v., respectively. All in vivo mouse experiments were conducted in accordance with the strict guidelines set out by the Swiss Federal Veterinary Office, under the ethical approval of license number #2813.

T. congolense = experiment: Efficacy against induced T. congolense infection in cattle; format: in vivo; conditions: single intramuscular injection of 10 mg/kg, 100 days post treatment
Procedure: as §3
(§4) [8] Method for testing compound efficacy in cattle: The cattle studies were conducted in accordance with the method described for cattle by Eisler et al. (2001) in studies conducted in fly-proof facilities and using T. congolense and T. vivax isolates that had previously been confirmed resistant in cattle to diminazine (7 mg/kg live weight) and/or isometamidium (1 mg/kg live weight). […]

T. vivax = experiment: Efficacy against induced T. vivax infection in cattle; format: in vivo; conditions: single intramuscular injection of 10 mg/kg, 100 days post treatment
Procedure: as §3, §4

`Cc1c(C(=O)N[C@H](C(=O)OCc2ccc(F)cc2)C(C)C)ccc2c1B(O)OC2` [Compound 5, 4-fluorobenzyl (1-hydroxy-7-methyl-1,3-dihydrobenzo[c][1,2]oxaborole-6-carbonyl)-L-valinate] gave an IC50 [1] of 0.14 nM, an IC50 ([1]; Trypanosoma congolense, 72 h) of 0.15 nM and an IC50 [2] of 1.3 nM. The microsomal CLint [3] was 5.4 µL/min/mg, the microsomal CLint [4] was 9.3 µL/min/mg and the “Efficacy in mouse model T. c., n/m (mice survived / total mice in group)” value ([5]; 1 × 5 mg/kg) was 0/4. For the same compound, the “Efficacy in mouse model T. c., n/m (mice survived / total mice in group)” value ([5]; 1 × 10 mg/kg) was 4/4, the “Efficacy in mouse model T. c., n/m (mice survived / total mice in group)” value ([5]; 2 × 10 mg/kg) was 5/5 and the “cure of T. c.-infected mice” value ([5]; single 5 mg/kg dose, IP) was “unable to cure”. The “Efficacy in mouse model T. v., n/m (mice survived / total mice in group)” value ([6]; 1 × 10 mg/kg, 10 mg/kg) was 5/5 and 4/4, the “Efficacy in mouse model T. v., n/m (mice survived / total mice in group)” value ([6]; 2 × 10 mg/kg) was 5/5 and the “curative efficacy in the T. v.-infected mouse model” value ([6]; single dose of 10 mg/kg, IP) was 100%. The “curative efficacy against T. congolense in cattle” value (T. congolense) was 100% and the “curative efficacy against T. vivax in cattle” value (T. vivax) was 100%.
